In one data set the test system is PC-3. Briefly: Cytotoxicity against human prostate adenocarcinoma PC-3 cell lines. Particulars: read-out: ED50 (the source's name). The class given is functional.
A further data set relates to MIA PaCa-2. Description: Cytotoxicity against human pancreatic carcinoma MIA PaCa-2 cell lines. The class given is functional. Particulars: read-out: ED50 (the source's name).
Data set [1] is described as follows: Lethality in Brine shrimp lethality test. Particulars: artemia.
Another data set concerns MCF7. Description: Cytotoxicity against human breast carcinoma MCF-7 cell lines. The class given is functional. Particulars: read-out: ED50 (the source's name).
The test system of the next data set is A498. Description: Cytotoxicity against human kidney carcinoma A-498cell lines. Particulars: read-out: ED50 (the source's name). The class given is functional.
The subject of the next data set is A549. Description: Cytotoxicity against human lung carcinoma A-549 cell lines. The class given is functional. To be noted: read-out: ED50 (the source's name).
The next data set deals with HT-29. Description: Cytotoxicity against human colon adenocarcinoma HT-29 cell lines. The class given is functional. Particulars: read-out: ED50 (the source's name).

By LC50 is commonly meant the concentration that kills 50% of the test population. A high value points to a less lethal substance.

In brackets after ≈: the same amount, converted by molar mass.

`CCCCCCCCCCCCC(O)[C@@H]1CC[C@H]([C@H](O)CCCCCCCCCCC(O)CC2=C[C@H](C)OC2=O)O1` (single isomer, unassigned): the EC50 with PC-3 came out at 2360 ng/mL (≈ 4060 nM); in the data set on MIA PaCa-2, 1.5 ng/mL (≈ 2.58 nM); with MCF7, 3150 ng/mL (≈ 5420 nM). The same molecule had an LC50 in data set [1] of 207 ng/mL (≈ 356 nM).

In the case of `CCCCCCCCCCCCC(O)C1CC[C@H]([C@H](O)CCCCCCCCCCC(O)CC2=C[C@H](C)OC2=O)O1` (single isomer, unassigned), the EC50 with PC-3 was found to be 1420 ng/mL (≈ 2440 nM); with A498, 4160 ng/mL (≈ 7160 nM); in the data set on A549, 3.41 ng/mL (≈ 5.87 nM); with HT-29, 1270 ng/mL (≈ 2190 nM); in the data set with MIA PaCa-2 it was 15.3 ng/mL (≈ 26.3 nM); with MCF7, 15.8 ng/mL (≈ 27.2 nM). In data set [1], this molecule yielded an LC50 of 346 ng/mL (≈ 596 nM).

As for `CCCCCCCCCCCCC(O)[C@H]1CC[C@H]([C@H](O)CCCCCCCCCCC(O)CC2=C[C@H](C)OC2=O)O1` (single isomer, unassigned), the EC50 was determined as 8410 ng/mL (≈ 14500 nM) in the data set on PC-3; 66.7 ng/mL (≈ 115 nM) in the data set with A498; 0.00316 ng/mL (≈ 0.00544 nM) in the data set on A549; 51.8 ng/mL (≈ 89.2 nM) in the data set with MIA PaCa-2; 5400 ng/mL (≈ 9300 nM) in the data set on MCF7. The LC50 in data set [1] was determined as 183 ng/mL (≈ 315 nM).

Consider `COc1cccc2c1C(=O)c1c(O)c3c(c(O)c1C2=O)C[C@@](O)(C(=O)CO)C[C@@H]3O[C@H]1C[C@H](N)[C@H](O)[C@H](C)O1` [DOXORUBICIN], for which the EC50 in the data set with PC-3 is 34.9 ng/mL (≈ 64.2 nM); in the data set with A498 it was 2.26 ng/mL (≈ 4.16 nM); in the data set on A549 it was 3.99 ng/mL (≈ 7.34 nM); with HT-29, 24.3 ng/mL (≈ 44.7 nM); in the data set on MIA PaCa-2, 1.36 ng/mL (≈ 2.5 nM); in the data set on MCF7, 420 ng/mL (≈ 773 nM).

The values are drawn from ChEMBL document CHEMBL1128154, “16,19-cis-murisolin and murisolin a, two novel bioactive mono-tetrahydrofuran annonaceous acetogenins from Asimina triloba seeds” (Bioorg Med Chem Lett, 1995).
